| melting point [°C] | SMILES |
| --- | --- |
| 186 | CNS(=O)(=O)c1sc(N(C)C(=O)Cc2ccc(-c3ccc(Cl)cc3)cc2)nc1C |
| 234 | Cc1nc(N(C)C(=O)Cc2ccc(-c3cncnc3)cc2)sc1S(N)(=O)=O |
| 225 | Cc1nc(N(C)C(=O)Cc2ccc(-c3ncccc3C(F)(F)F)cc2)sc1S(N)(=O)=O.Cl |
| 225 | CNS(=O)(=O)c1sc(N(C)C(=O)Cc2ccc(-c3ncccc3O)cc2)nc1C |
| 206 | Cc1nc(N(C)C(=O)Cc2ccc(-c3ncccc3F)cc2)sc1S(N)(=O)=O.Cl |
| 234 | CC(=O)Nc1cccc(-c2ccc(CC(=O)N(C)c3nc(C)c(S(N)(=O)=O)s3)cc2)c1 |
| 128 | Cc1nc(N(C)C(=O)Cc2ccc(-c3ccccc3)cc2)sc1S(=O)(=O)NCCO[Si](C)(C)C(C)(C)C |
| 217 | Cc1nc(N(C)C(=O)Cc2ccc(-c3cnccn3)cc2)sc1S(N)(=O)=O |
| 187 | CNS(=O)(=O)c1sc(N(C)C(=O)Cc2ccc(-c3cnccn3)cc2)nc1C |
| 199 | COCCN(C(=O)Cc1ccc(-c2cc(F)ccc2OC)cc1)c1nc(C)c(S(N)(=O)=O)s1 |
| 204 | Cc1nc(N(CCc2ccncc2)C(=O)Cc2ccc(-c3ccccc3)cc2)sc1S(N)(=O)=O |
| 159 | Cc1nc(N(C)C(=O)Cc2ccc(-c3ccccc3)cc2)sc1S(=O)(=O)NCCOC(=O)CNC(=O)OC(C)(C)C |
| 153 | CCOc1ccc(CC(=O)N(CCN(C)C)c2nc(C)c(S(=O)(=O)NC)s2)cc1 |
| 133 | CNS(=O)(=O)c1sc(NC(=O)Cc2ccc(-c3ccccc3)cc2)nc1C |
| 179 | Cc1nc(N(C(=O)Cc2ccc(-c3ccccc3)cc2)C2CC2)sc1S(N)(=O)=O |
| 202 | CNS(=O)(=O)c1sc(N(C(=O)Cc2ccc(-c3ccccc3)cc2)C2CC2)nc1C |
| 163 | COCCN(C(=O)Cc1ccc(-c2ccccc2)cc1)c1nc(C)c(S(N)(=O)=O)s1 |
| 187 | CNS(=O)(=O)c1sc(N(C)C(=O)Cc2ccc(-c3cccc(Cl)c3)cc2)nc1C |
| 154 | CCCN(C(=O)Cc1ccc(-c2ccccc2)cc1)c1nc(C)c(S(N)(=O)=O)s1 |
| 161 | CNS(=O)(=O)c1sc(N(Cc2cccnc2)C(=O)Cc2ccc(-c3ccccc3)cc2)nc1C |
| 158 | CNS(=O)(=O)c1sc(N(CCCN2CCCC2=O)C(=O)Cc2ccc(-c3ccccc3)cc2)nc1C |

| melting point [°C] | SMILES |
| --- | --- |
| 142 to 143 | COCCCNS(=O)(=O)c1sc(N(C)C(=O)Cc2ccc(-c3ccccc3)cc2)nc1C |
| 139 to 140 | CCOCCCNS(=O)(=O)c1sc(N(C)C(=O)Cc2ccc(-c3ccccc3)cc2)nc1C |
| 190 | CNS(=O)(=O)c1sc(N(C)C(=O)Cc2ccc(-c3ccccc3OC(F)(F)F)cc2)nc1C |
| 74 to 75 | CCOCCCNS(=O)(=O)c1sc(N(CCCOCC)C(=O)Cc2ccc(-c3cccc(OC)c3)cc2)nc1C |
| 125 to 127 | CCOCCCNS(=O)(=O)c1sc(N(C)C(=O)Cc2ccc(-c3cccc(OC)c3)cc2)nc1C |
| 180 | CNS(=O)(=O)c1sc(N(C)C(=O)Cc2ccc(-c3ccccc3)cc2)nc1C |
| 177 | Cc1nc(N(C)C(=O)Cc2ccc(-c3cccnc3)cc2)sc1S(N)(=O)=O.Cl |
| 125 to 127 | CCOCCNS(=O)(=O)c1sc(N(C)C(=O)Cc2ccc(OCC)cc2)nc1C |
| 168 | CNS(=O)(=O)c1sc(N(C)C(=O)Cc2ccc(Br)cc2)nc1C |
| 170 to 172 | CNS(=O)(=O)c1sc(N(C)C(=O)C(C)c2ccc(-c3ccccc3)cc2)nc1C (stereo not drawn) |
| 216 | Cc1nc(N(C)C(=O)Cc2ccc(-c3ccccc3)cc2)sc1S(=O)(=O)NCC(F)(F)F |
| 154 | CNS(=O)(=O)c1sc(N(C)C(=O)Cc2ccc(-c3cccc(OC)c3)cc2)nc1C |
| 108 | CCCN(C(=O)Cc1ccc(-c2ccccc2)cc1)c1nc(C)c(S(=O)(=O)NCC(F)(F)F)s1 |
| 161 | Cc1nc(N(C)C(=O)Cc2ccc(-c3cccc(O[Si](C)(C)C(C)(C)C)c3)cc2)sc1S(N)(=O)=O |
| 80 | CNS(=O)(=O)c1sc(N(C)C(=O)Cc2ccc(-c3ncccc3N)cc2)nc1C |
| 130 | CNS(=O)(=O)c1sc(N(C)C(=O)Cc2ccc(-c3cncc(C#N)c3)cc2)nc1C |
| 113 | CNS(=O)(=O)c1sc(N(C)C(=O)Cc2ccc(-c3cnccc3C)cc2)nc1C |
| 202 | CNS(=O)(=O)c1sc(N(C)C(=O)Cc2ccc(-c3ccccc3C(F)(F)F)cc2)nc1C |
| 167 | CNS(=O)(=O)c1sc(N(C)C(=O)Cc2ccc(-c3ccccc3C)cc2)nc1C |
| 190 | CNS(=O)(=O)c1sc(N(C)C(=O)Cc2ccc(-c3cccc(F)c3)cc2)nc1C |
| 219 | COc1ccc(F)cc1-c1ccc(CC(=O)N(C)c2nc(C)c(S(N)(=O)=O)s2)cc1 |

| melting point [°C] | SMILES |
| --- | --- |
| 68 to 70 | CCCCOc1ccc(CC(=O)N(C)c2nc(C)c(S(=O)(=O)NCCOCC)s2)cc1 |
| 122 | CCOc1ccc(CC(=O)N(Cc2ccncc2)c2nc(C)c(S(N)(=O)=O)s2)cc1 |
| 205 | Cc1nc(N(Cc2ccccn2)C(=O)Cc2ccc(-c3ccccc3)cc2)sc1S(N)(=O)=O |
| 189 | Cc1nc(N(Cc2cccnc2)C(=O)Cc2ccc(-c3ccccc3)cc2)sc1S(N)(=O)=O |
| 192 | CNS(=O)(=O)c1sc(N(C)C(=O)Cc2ccc(-c3ccccc3OC)cc2)nc1C |
| 130 | Cc1nc(N(Cc2ccncc2)C(=O)Cc2ccc(-c3ccccc3)cc2)sc1S(N)(=O)=O |
| 109 | CNS(=O)(=O)c1sc(N(C)C(=O)Cc2ccc(-c3cccc4c3oc3ccccc34)cc2)nc1C |
| 204 | Cc1ccncc1-c1ccc(CC(=O)N(C)c2nc(C)c(S(N)(=O)=O)s2)cc1 |
| 183 | Cc1cnc(N)c(-c2ccc(CC(=O)N(C)c3nc(C)c(S(N)(=O)=O)s3)cc2)c1 |
| 264 | Cc1nc(N(C)C(=O)Cc2ccc(-c3ncccc3N)cc2)sc1S(N)(=O)=O.Cl |
| 175 | Cc1nc(N(C)C(=O)Cc2ccc(-c3ccccc3)cc2)sc1S(=O)(=O)NCCN(C)C(=O)OC(C)(C)C |
| 202 | Cc1nc(N(C)C(=O)Cc2ccc(-c3cccc(F)c3F)cc2)sc1S(N)(=O)=O |
| 215 | Cc1nc(N(C)C(=O)Cc2ccc(-c3c(F)cccc3F)cc2)sc1S(N)(=O)=O |
| 138 | Cc1nc(N(C)C(=O)Cc2ccc(-c3ccccc3)cc2)sc1S(=O)(=O)NCCN |
| 193 | CNS(=O)(=O)c1sc(N(C)C(=O)Cc2ccc(-c3cncnc3)cc2)nc1C |
| 136 | Cc1nc(N(CCc2ccccn2)C(=O)Cc2ccc(-c3ccccc3)cc2)sc1S(N)(=O)=O |
| 161 | Cc1nc(N(CC2CC2)C(=O)Cc2ccc(-c3ccccc3)cc2)sc1S(N)(=O)=O |
| 117 | C=CCN(C(=O)Cc1ccc(-c2ccccc2)cc1)c1nc(C)c(S(N)(=O)=O)s1 |
| 174 | Cc1nc(N(CCc2ccccc2)C(=O)Cc2ccc(-c3ccccc3)cc2)sc1S(N)(=O)=O |
| 203 | Cc1nc(N(CCCN2CCCC2=O)C(=O)Cc2ccc(-c3ccccc3)cc2)sc1S(N)(=O)=O |
| 202 | Cc1nc(N(CCN2CCCC2=O)C(=O)Cc2ccc(-c3ccccc3)cc2)sc1S(N)(=O)=O |

Reference: patent US7105553B2, “Thiazolyl amide derivatives” (Bayer Aktiengesellschaft, priority 1999, dated 2006)
